Each compound was assayed against Nav1.7 (Homo sapiens (Human), UniProt Q15858) (assay: Patch voltage clamp electrophysiology, block of inactivated-state Nav1.7 in HEK-293 cells). Conditions: affinity for the inactivated state; HEK-293 cells with β1 subunit; held at -60 mV; read-out: NaV1.7 (IC50 class).
Assay type: cell-based
Experimental: Patch voltage clamp electrophysiology allows for the direct measurement and quantification of block of voltage-gated sodium channels (Nav's), and allows the determination of the time- and voltage-dependence of block which has been interpreted as differential binding to the resting, open, and inactivated states of the sodium channel (Hille, B., Journal of General Physiology (1977), 69: 497-515).
The following patch voltage clamp electrophysiology studies were performed on representative compounds of the invention using human embryonic kidney cells (HEK), permanently transfected with an expression vector containing the full-length cDNA coding for the desired human sodium channel α-subunit, grown in culture media containing 10% FBS, 1% PSG, and 0.5 mg/mL G418 at 37° C. with 5% CO2. […] Nav1.7 and Nav1.5 cDNAs (NM_002977 and AC137587; SCN5A, respectively) were stably expressed in HEK-293 cells. The β1 subunit was coexpressed only in the Nav1.7 cell line.
Sodium currents were measured using the patch clamp technique in the whole-cell configuration using either a PatchXpress automated voltage clamp or manually using an Axopatch 200B (Axon Instruments) or Model 2400 (A-M systems) amplifier. […] The pipette was filled with a solution comprised of: 5 mM NaCl, 10 mM CsCl, 120 mM CsF, 0.1 mM CaCl2, 2 mM MgCl2, 10 mM HEPES, 10 mM EGTA; and adjusted to pH 7.2 with CsOH. The external solution had the following composition: 140 mM NaCl, 5 mM KCl, 2 mM CaCl2, 1 mM MgCl2, 10 mM HEPES; and adjusted to pH 7.4 with NaOH. In some studies, the external sodium was reduced by equimolar replacement with choline. Osmolarity in the CsF internal and NaCl external solutions was adjusted to 300 mOsm/kg and 310 mOsm/kg with glucose, respectively. All recordings were performed at ambient temperature in a bath chamber with a volume of 150 μL. Control sodium currents were measured in 0.5% DMSO. Controls and representative compounds of the invention were applied to the recording chamber through a 4-pinch or 8-pinch valve bath perfusion system manufactured by ALA Scientific Instruments.
Currents were recorded at 40 kHz sampling frequency, filtered at […], and stored using a Digidata-1322A analogue/digital interface with the pClamp software (Axon Instruments). Series resistance compensation was applied (60-80%). […] All statistics in this study are given as mean±SD.
The membrane potential was maintained at a voltage where inactivation of the channel is complete (which was −60 mV for both Nav1.7 and Nav1.5). The voltage is then stepped back to a very negative (Vhold=−150 mV) voltage for 20 ms and then a test pulse is applied to quantify the compound block. […] The percent decrease in sodium current following wash-on of compound was taken as the percent block of sodium channels.
The Example numbers provided in Table 1 and Table 2 correspond to the Examples herein.

Chain of Nav1.7 (Q15858 other isoform, or with tags, fused parts or gaps): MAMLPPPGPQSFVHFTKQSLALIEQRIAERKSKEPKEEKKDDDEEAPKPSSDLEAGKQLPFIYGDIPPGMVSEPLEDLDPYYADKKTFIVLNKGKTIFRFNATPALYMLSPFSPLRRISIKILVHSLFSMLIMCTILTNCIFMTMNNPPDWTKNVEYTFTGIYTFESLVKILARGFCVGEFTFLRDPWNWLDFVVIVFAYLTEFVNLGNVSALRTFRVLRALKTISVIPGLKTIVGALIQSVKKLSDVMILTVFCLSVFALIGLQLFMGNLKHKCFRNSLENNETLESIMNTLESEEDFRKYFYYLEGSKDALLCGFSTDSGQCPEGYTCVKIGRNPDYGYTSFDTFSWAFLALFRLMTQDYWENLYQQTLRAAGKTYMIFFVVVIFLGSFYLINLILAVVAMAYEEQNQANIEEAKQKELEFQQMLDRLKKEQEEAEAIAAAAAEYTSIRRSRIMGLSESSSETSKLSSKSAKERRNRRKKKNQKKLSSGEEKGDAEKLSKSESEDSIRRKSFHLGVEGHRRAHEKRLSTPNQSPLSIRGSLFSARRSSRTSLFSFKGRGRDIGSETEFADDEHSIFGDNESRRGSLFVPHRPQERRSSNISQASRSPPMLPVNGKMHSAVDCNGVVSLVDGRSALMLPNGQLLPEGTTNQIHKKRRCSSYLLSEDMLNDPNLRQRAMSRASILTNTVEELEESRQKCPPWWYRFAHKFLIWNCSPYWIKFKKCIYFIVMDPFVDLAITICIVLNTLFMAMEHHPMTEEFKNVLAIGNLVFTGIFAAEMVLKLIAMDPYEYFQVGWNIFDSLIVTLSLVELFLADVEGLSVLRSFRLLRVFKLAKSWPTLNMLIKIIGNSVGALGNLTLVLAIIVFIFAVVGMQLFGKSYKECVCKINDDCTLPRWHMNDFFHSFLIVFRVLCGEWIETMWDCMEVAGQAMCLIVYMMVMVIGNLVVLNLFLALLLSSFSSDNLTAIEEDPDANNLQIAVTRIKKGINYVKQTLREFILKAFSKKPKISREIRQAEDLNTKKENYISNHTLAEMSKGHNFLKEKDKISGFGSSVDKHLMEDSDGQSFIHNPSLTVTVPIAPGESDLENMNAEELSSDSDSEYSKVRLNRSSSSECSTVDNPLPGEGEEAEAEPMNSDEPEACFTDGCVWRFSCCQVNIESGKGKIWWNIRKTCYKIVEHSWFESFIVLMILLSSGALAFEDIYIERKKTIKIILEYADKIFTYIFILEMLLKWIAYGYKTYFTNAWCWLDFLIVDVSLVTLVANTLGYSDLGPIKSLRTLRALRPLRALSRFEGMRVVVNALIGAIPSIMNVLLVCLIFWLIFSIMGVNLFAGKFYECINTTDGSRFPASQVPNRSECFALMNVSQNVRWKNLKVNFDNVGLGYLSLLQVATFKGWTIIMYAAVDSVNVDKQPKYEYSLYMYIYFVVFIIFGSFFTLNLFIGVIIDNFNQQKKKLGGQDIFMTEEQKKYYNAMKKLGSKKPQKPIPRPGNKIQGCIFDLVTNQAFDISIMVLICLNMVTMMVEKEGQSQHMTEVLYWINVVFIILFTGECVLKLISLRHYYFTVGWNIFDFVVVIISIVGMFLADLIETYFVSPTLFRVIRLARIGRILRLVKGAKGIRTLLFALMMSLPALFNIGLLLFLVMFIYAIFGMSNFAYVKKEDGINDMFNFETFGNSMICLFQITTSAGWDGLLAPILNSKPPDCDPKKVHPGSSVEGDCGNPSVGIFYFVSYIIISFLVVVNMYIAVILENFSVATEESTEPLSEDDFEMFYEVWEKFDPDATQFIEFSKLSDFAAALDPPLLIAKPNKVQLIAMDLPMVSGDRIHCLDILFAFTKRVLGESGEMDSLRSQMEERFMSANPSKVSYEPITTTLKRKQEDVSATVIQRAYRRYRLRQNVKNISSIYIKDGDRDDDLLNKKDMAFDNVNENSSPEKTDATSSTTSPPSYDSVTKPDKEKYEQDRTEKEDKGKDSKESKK
Chain of Nav1.7 (Q07699 19-218 partner): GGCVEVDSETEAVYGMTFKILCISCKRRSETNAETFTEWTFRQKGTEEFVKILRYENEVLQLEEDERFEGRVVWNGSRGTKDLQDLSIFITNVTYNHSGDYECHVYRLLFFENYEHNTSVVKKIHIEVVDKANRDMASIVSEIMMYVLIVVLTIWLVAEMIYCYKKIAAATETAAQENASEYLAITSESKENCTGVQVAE

Structure (SMILES)	IC50
CNc1noc2ccc(-c3cc(Cl)ccc3Oc3cc(F)c(S(=O)(=O)Nc4ncns4)cc3F)cc12 [Example 69, 4-(4-chloro-2-(3-(methylamino)benzo[d]isoxazol-5-yl)phenoxy)-2,5-difluoro-N-(1,2,4-thiadiazol-5-yl)benzenesulfonamide]	≤ 100 nM
Nc1nc2cc(-c3cc(Cl)ccc3Oc3cc(F)c(S(=O)(=O)Nc4ncns4)cc3F)ccc2[nH]1 [Example 38, 4-(2-(2-amino-1H-benzo[d]imidazol-5-yl)-4-chlorophenoxy)-2,5-difluoro-N-(1,2,4-thiadiazol-5-yl)benzenesulfonamide]	≤ 100 nM
O=c1[nH]cc(-c2cc(Cl)ccc2Oc2cc(F)c(S(=O)(=O)Nc3ncns3)cc2F)n2cncc12 [Example 35, 4-(4-chloro-2-(8-oxo-7,8-dihydroimidazo[1,5-a]pyrazin-5-yl)phenoxy)-2,5-difluoro-N-(1,2,4-thiadiazol-5-yl)benzenesulfonamide]	100 to 1000 nM
O=S(=O)(Nc1ncns1)c1cc(F)c(Oc2ccc(Cl)cc2-c2ncc3cnccn23)cc1F [Example 36, 4-(4-chloro-2-(imidazo[1,5-a]pyrazin-3-yl)phenoxy)-2,5-difluoro-N-(1,2,4-thiadiazol-5-yl)benzenesulfonamide]	1000 to 10000 nM
O=S(=O)(Nc1ncns1)c1cc(F)c(Oc2ccc(Cl)cc2-n2cnc3cncnc32)cc1F [Example 40, 4-(4-chloro-2-(9H-purin-9-yl)phenoxy)-2,5-difluoro-N-(1,2,4-thiadiazol-5-yl)-benzenesulfonamide]	1000 to 10000 nM
O=S(=O)(Nc1ncns1)c1cc(F)c(Oc2ccc(Cl)cc2-c2ccnc3nccn23)cc1F [Example 31, 4-(4-chloro-2-(imidazo[1,2-a]pyrimidin-5-yl)phenoxy)-2,5-difluoro-N-(1,2,4-thiadiazol-5-yl)benzenesulfonamide]	≤ 100 nM
Cn1cnc2c(-c3cc(Cl)ccc3Oc3cc(F)c(S(=O)(=O)Nc4ncns4)cc3F)ncnc21 [Example 39, 4-(4-chloro-2-(9-methyl-9H-purin-6-yl)phenoxy)-2,5-difluoro-N-(1,2,4-thiadiazol-5-yl)benzenesulfonamide]	1000 to 10000 nM
Nc1noc2ccc(-c3cc(Cl)ccc3Oc3ccc(S(=O)(=O)Nc4ncns4)c(F)c3F)cc12 [Example 65, 4-(2-(3-aminobenzo[d]isoxazol-5-yl)-4-chlorophenoxy)-2,3-difluoro-N-(1,2,4-thiadiazol-5-yl)benzenesulfonamide]	≤ 100 nM
Nc1noc2ccc(-c3cc(Cl)ccc3Oc3cc(F)c(S(=O)(=O)Nc4ncns4)cc3F)cc12 [Example 44, 4-(2-(3-aminobenzo[d]isoxazol-5-yl)-4-chlorophenoxy)-2,5-difluoro-N-(1,2,4-thiadiazol-5-yl)benzenesulfonamide]	≤ 100 nM
Nc1cnc2ccc(-c3cc(Cl)ccc3Oc3cc(F)c(S(=O)(=O)Nc4ncns4)cc3F)cn12 [Example 42, 4-(2-(3-aminoimidazo[1,2-a]pyridin-6-yl)-4-chlorophenoxy)-2,5-difluoro-N-(1,2,4-thiadiazol-5-yl)benzenesulfonamide]	≤ 100 nM
O=S(=O)(Nc1ncns1)c1cc(F)c(Oc2ccc(Cl)cc2-c2cccc3nccn23)cc1F [Example 30, 4-(4-chloro-2-(imidazo[1,2-a]pyridin-5-yl)phenoxy)-2,5-difluoro-N-(1,2,4-thiadiazol-5-yl)benzenesulfonamide]	≤ 100 nM

The next lines start with the values.

IC50	Structure (SMILES)
≤ 100 nM	O=S(=O)(Nc1ncns1)c1cc(F)c(Oc2ccc(Cl)cc2-c2ccc3ocnc3c2)cc1F [Example 51, 4-(2-(benzo[d]oxazol-5-yl)-4-chlorophenoxy)-2,5-difluoro-N-(1,2,4-thiadiazol-5-yl)benzenesulfonamide]
≤ 100 nM	O=C1Cc2ccc(-c3cc(Cl)ccc3Oc3cc(F)c(S(=O)(=O)Nc4ncns4)cc3F)cc2N1 [Example 55, 4-(4-chloro-2-(2-oxoindolin-6-yl)phenoxy)-2,5-difluoro-N-(1,2,4-thiadiazol-5-yl)benzenesulfonamide]
≤ 100 nM	O=c1[nH]c2cc(-c3cc(Cl)ccc3Oc3ccc(S(=O)(=O)Nc4ncccn4)cc3F)ccc2o1 [Example 79, 4-(4-chloro-2-(2-oxo-2,3-dihydrobenzo[d]oxazol-5-yl)phenoxy)-3-fluoro-N-(pyrimidin-2-yl)benzenesulfonamide]
≤ 100 nM	NC(=O)c1cnc2ccc(-c3cc(Cl)ccc3Oc3cc(F)c(S(=O)(=O)Nc4ncns4)cc3F)cn12 [Example 46, 6-(2-(4-(N-(1,2,4-thiadiazol-5-yl)sulfamoyl)-2,5-difluorophenoxy)-5-chlorophenyl)imidazo[1,2-a]pyridine-3-carboxamide]
≤ 100 nM	O=c1[nH]c2cc(-c3cc(Cl)ccc3Oc3cc(F)c(S(=O)(=O)Nc4ncns4)cc3F)ccc2o1 [Example 52, 4-(4-chloro-2-(2-oxo-2,3-dihydrobenzo[d]oxazol-5-yl)phenoxy)-2,5-difluoro-N-(1,2,4-thiadiazol-5-yl)benzenesulfonamide]
≤ 100 nM	O=c1[nH]c2ccc(-c3cc(Cl)ccc3Oc3cc(F)c(S(=O)(=O)Nc4ncns4)cc3F)cc2[nH]1 [Example 48, 4-(4-chloro-2-(2-oxo-2,3-dihydro-1H-benzo[d]imidazol-5-yl)phenoxy)-2,5-difluoro-N-(1,2,4-thiadiazol-5-yl)benzenesulfonamide]
≤ 100 nM	O=C1Cc2cc(-c3cc(Cl)ccc3Oc3cc(F)c(S(=O)(=O)Nc4ncns4)cc3F)ccc2N1 [Example 77, 4-(4-chloro-2-(2-oxoindolin-5-yl)phenoxy)-2,5-difluoro-N-(1,2,4-thiadiazol-5-yl)benzenesulfonamide]
≤ 100 nM	O=S(=O)(Nc1ncns1)c1cc(F)c(Oc2ccc(Cl)cc2-c2ccc3[nH]cnc3c2)cc1F [Example 73, 4-(2-(1H-benzo[d]imidazol-5-yl)-4-chlorophenoxy)-2,5-difluoro-N-(1,2,4-thiadiazol-5-yl)benzenesulfonamide]
≤ 100 nM	Nc1noc2ccc(-c3cc(Cl)ccc3Oc3cc(F)c(S(=O)(=O)Nc4ncccn4)cc3F)cc12 [Example 63, 4-(2-(3-aminobenzo[d]isoxazol-5-yl)-4-chlorophenoxy)-2,5-difluoro-N-(pyrimidin-2-yl)benzenesulfonamide]
≤ 100 nM	O=S(=O)(Nc1ncns1)c1cc(F)c(Oc2ccc(Cl)cc2-c2ccc3[nH]c(C(F)(F)F)nc3c2)cc1F [Example 54, 4-(4-chloro-2-(2-(trifluoromethyl)-1H-benzo[d]imidazol-5-yl)phenoxy)-2,5-difluoro-N-(1,2,4-thiadiazol-5-yl)benzenesulfonamide]
≤ 100 nM	Nc1noc2ccc(-c3cc(F)ccc3Oc3cc(F)c(S(=O)(=O)Nc4ncns4)cc3F)cc12 [Example 80, 4-(2-(3-aminobenzo[d]isoxazol-5-yl)-4-fluorophenoxy)-2,5-difluoro-N-(1,2,4-thiadiazol-5-yl)benzenesulfonamide]
≤ 100 nM	O=S(=O)(Nc1ncns1)c1cc(F)c(Oc2ccc(Cl)cc2-c2ccc3nccnc3c2)cc1F [Example 59, 4-(4-chloro-2-(quinoxalin-6-yl)phenoxy)-2,5-difluoro-N-(1,2,4-thiadiazol-5-yl)benzenesulfonamide]
≤ 100 nM	Nc1nc2ccc(-c3cc(Cl)ccc3Oc3cc(F)c(S(=O)(=O)Nc4ncns4)cc3F)cc2o1 [Example 57, 4-(2-(2-aminobenzo[d]oxazol-6-yl)-4-chlorophenoxy)-2,5-difluoro-N-(1,2,4-thiadiazol-5-yl)benzenesulfonamide]
≤ 100 nM	Cc1ccc(Oc2cc(F)c(S(=O)(=O)Nc3ncns3)cc2F)c(-c2ccc3oc(=O)[nH]c3c2)c1 [Example 82, 2,5-difluoro-4-(4-methyl-2-(2-oxo-2,3-dihydrobenzo[d]oxazol-5-yl)phenoxy)-N-(1,2,4-thiadiazol-5-yl)benzenesulfonamide]
≤ 100 nM	CN(C)c1noc2ccc(-c3cc(Cl)ccc3Oc3cc(F)c(S(=O)(=O)Nc4ncns4)cc3F)cc12 [Example 98, 4-(4-chloro-2-(3-(dimethylamino)benzo[d]isoxazol-5-yl)phenoxy)-2,5-difluoro-N-(1,2,4-thiadiazol-5-yl)benzenesulfonamide]
≤ 100 nM	O=c1[nH]c2ccc(-c3cc(Cl)ccc3Oc3cc(F)c(S(=O)(=O)Nc4ncns4)cc3F)cc2o1 [Example 53, 4-(4-chloro-2-(2-oxo-2,3-dihydrobenzo[d]oxazol-6-yl)phenoxy)-2,5-difluoro-N-(1,2,4-thiadiazol-5-yl)benzenesulfonamide]

From patent US9481677B2, “Biaryl ether sulfonamides and their use as therapeutic agents” (XENON PHARMACEUTICALS INC., priority 2011, dated 2016)
